Test results: ChEMBL document CHEMBL3991601, “The target landscape of clinical kinase drugs” (Science, 2017)
Activity calls are given as the source filed them. Rule as the data show it, for most assays here: actives have a measured Kd and inactives only a lower limit.

Experiments:
[1] = target: Adenosine kinase (Homo sapiens, UniProt P55263)
[2] = target: RAC-gamma serine/threonine-protein kinase (Homo sapiens, UniProt Q9Y243)
[3] = target: Cyclin-dependent kinase 13 (Homo sapiens, UniProt Q14004)
[4] = target: T1, Phenylalanine--tRNA ligase beta subunit (Homo sapiens, UniProt Q9NSD9)
T1 sequence (Q9NSD9 whole entry): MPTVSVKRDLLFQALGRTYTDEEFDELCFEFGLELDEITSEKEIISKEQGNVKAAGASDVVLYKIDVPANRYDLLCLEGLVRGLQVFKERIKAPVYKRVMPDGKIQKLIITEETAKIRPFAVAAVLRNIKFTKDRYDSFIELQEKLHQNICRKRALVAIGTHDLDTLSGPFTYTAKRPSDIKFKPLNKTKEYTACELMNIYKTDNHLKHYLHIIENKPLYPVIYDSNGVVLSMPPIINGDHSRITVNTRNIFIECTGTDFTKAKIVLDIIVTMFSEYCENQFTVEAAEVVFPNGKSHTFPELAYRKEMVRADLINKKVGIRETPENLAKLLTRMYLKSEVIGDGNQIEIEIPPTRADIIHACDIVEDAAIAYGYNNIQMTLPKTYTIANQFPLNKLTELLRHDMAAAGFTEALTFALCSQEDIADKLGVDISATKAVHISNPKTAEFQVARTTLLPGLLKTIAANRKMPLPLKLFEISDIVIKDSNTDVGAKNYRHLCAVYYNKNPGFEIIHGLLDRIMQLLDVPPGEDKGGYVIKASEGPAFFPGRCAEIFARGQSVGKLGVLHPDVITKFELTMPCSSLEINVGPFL

[5] = target: Protein kinase C alpha type (Homo sapiens, UniProt P17252)
[6] = target: Ras-related protein Rab-6A (Homo sapiens, UniProt P20340)
[7] = target: Ribosomal protein S6 kinase alpha-6 (Homo sapiens, UniProt Q9UK32)
[8] = target: T2, Exosome RNA helicase MTR4 (Homo sapiens, UniProt P42285)
T2 sequence (P42285 whole entry): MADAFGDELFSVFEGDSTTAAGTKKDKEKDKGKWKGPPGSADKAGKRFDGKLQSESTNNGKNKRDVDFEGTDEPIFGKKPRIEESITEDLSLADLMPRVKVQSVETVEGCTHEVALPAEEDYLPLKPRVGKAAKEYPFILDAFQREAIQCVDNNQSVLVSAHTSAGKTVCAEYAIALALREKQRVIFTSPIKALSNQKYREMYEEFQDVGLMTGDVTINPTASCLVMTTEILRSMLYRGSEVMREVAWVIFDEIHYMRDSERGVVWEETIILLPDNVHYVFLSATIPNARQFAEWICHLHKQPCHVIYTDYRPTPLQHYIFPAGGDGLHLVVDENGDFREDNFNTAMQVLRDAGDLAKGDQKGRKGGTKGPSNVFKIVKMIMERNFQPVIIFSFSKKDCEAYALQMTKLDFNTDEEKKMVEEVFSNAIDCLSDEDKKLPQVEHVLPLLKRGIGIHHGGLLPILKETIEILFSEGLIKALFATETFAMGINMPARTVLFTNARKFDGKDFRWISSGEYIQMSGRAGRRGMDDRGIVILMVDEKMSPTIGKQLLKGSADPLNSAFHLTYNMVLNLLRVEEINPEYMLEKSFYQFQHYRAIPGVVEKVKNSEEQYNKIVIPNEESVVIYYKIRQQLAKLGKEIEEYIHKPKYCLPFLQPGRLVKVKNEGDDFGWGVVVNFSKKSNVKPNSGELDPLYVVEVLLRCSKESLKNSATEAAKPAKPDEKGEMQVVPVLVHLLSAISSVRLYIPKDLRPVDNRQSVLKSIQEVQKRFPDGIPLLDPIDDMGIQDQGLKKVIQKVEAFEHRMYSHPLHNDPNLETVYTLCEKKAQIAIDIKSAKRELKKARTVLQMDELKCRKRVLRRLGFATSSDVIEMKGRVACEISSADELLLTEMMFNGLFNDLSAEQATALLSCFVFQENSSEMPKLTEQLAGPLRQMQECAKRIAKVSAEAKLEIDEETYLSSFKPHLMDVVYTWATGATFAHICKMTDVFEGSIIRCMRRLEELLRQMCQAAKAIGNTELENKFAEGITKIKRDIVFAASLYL

[9] = target: Proto-oncogene tyrosine-protein kinase Src (Homo sapiens, UniProt P12931)
[10] = target: T3, Serine/threonine-protein kinase TAO3 (Homo sapiens, UniProt Q9H2K8)
T3 sequence (Q9H2K8 whole entry): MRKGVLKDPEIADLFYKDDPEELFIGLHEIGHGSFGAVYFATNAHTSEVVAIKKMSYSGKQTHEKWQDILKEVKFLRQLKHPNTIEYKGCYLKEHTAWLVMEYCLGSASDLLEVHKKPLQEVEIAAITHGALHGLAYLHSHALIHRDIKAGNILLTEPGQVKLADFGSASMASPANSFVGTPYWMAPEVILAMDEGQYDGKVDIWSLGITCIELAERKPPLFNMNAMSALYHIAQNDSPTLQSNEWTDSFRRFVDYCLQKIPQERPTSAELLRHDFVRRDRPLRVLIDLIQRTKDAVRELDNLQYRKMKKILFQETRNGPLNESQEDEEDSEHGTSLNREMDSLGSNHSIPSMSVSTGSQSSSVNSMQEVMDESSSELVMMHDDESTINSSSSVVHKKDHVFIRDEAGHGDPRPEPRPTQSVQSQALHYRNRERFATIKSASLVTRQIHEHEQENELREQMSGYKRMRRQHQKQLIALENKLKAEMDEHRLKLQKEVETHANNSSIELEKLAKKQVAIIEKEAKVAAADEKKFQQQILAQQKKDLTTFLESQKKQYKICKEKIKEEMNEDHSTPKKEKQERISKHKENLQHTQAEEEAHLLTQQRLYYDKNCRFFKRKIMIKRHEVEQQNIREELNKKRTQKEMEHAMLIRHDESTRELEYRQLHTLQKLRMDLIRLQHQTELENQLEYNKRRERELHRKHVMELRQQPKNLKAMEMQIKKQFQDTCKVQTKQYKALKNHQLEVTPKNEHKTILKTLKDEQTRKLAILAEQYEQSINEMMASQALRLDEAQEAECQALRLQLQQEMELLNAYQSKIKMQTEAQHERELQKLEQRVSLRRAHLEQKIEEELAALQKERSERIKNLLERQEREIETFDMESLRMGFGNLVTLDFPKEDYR

[11] = target: Wee1-like protein kinase (Homo sapiens, UniProt P30291)
Also: in the data inactive means no Kd found up to 30 µM.

Chain of Cyclin-dependent kinase 13 (Q14004 whole entry): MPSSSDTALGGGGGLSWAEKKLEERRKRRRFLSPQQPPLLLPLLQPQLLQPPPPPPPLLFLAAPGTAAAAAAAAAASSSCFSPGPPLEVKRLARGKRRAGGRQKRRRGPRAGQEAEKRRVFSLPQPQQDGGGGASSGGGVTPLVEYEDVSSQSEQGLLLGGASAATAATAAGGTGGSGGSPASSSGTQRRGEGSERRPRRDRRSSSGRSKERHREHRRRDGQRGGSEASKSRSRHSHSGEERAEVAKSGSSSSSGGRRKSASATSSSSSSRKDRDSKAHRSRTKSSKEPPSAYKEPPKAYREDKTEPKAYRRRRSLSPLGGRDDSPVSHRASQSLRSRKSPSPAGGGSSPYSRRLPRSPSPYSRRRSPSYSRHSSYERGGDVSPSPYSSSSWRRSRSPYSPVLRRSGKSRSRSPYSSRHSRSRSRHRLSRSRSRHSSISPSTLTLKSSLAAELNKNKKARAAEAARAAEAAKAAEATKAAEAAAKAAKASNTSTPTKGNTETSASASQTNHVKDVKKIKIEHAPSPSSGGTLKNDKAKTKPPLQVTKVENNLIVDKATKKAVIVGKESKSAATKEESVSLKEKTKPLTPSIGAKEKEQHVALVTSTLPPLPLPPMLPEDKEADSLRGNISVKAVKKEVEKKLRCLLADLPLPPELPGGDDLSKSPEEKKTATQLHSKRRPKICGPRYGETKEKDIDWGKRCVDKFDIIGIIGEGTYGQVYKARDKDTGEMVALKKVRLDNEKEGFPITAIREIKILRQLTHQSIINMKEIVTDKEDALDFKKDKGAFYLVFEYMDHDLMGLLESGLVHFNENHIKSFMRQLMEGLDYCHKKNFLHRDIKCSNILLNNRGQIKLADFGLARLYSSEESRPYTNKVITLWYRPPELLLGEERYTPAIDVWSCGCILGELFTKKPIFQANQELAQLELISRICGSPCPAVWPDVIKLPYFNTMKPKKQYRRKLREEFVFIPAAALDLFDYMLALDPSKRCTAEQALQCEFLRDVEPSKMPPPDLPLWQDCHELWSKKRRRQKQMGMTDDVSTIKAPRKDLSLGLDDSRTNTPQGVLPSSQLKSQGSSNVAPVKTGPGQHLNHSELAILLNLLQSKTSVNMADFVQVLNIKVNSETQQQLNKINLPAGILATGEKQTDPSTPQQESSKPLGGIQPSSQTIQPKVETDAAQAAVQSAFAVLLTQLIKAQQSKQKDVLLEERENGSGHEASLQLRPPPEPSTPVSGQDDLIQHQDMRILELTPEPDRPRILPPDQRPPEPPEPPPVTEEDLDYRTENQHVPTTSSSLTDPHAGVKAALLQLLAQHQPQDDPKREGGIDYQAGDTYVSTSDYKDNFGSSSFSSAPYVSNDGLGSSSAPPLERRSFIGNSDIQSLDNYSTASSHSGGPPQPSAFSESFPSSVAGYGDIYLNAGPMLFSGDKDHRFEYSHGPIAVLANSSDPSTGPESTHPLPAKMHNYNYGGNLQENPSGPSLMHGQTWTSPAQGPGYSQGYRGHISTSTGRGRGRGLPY
Chain of RAC-gamma serine/threonine-protein kinase (Q9Y243 whole entry): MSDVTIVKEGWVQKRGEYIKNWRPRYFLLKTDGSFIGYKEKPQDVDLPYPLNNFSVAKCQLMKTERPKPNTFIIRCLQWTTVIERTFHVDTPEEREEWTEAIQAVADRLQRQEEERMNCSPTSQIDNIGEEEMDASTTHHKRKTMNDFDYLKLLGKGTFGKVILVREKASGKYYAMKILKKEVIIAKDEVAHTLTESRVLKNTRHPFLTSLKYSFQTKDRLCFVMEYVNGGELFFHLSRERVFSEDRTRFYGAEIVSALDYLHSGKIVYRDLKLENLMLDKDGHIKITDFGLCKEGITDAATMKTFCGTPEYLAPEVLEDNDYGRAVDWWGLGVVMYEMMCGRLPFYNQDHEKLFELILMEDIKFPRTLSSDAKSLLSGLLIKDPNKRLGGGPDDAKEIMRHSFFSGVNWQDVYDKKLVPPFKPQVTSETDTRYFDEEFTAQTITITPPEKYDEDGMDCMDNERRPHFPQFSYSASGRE
Chain of Wee1-like protein kinase (P30291 whole entry): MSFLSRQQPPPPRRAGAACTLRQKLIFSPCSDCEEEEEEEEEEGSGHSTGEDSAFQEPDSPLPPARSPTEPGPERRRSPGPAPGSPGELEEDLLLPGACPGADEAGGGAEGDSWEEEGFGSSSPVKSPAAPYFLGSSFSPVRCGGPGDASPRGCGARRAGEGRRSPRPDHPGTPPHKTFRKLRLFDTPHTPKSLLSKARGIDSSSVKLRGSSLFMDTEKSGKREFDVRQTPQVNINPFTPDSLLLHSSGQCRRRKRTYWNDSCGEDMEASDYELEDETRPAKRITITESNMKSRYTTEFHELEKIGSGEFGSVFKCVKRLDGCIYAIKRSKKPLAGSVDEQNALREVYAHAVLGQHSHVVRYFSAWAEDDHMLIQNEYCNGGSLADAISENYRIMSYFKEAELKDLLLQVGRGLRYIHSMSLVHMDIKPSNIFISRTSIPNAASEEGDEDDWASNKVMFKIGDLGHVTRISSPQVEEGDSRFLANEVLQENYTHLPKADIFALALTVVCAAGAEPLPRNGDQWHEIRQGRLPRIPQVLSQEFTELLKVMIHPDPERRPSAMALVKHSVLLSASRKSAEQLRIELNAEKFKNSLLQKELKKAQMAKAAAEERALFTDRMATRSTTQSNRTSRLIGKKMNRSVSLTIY
Chain of Ribosomal protein S6 kinase alpha-6 (Q9UK32 whole entry): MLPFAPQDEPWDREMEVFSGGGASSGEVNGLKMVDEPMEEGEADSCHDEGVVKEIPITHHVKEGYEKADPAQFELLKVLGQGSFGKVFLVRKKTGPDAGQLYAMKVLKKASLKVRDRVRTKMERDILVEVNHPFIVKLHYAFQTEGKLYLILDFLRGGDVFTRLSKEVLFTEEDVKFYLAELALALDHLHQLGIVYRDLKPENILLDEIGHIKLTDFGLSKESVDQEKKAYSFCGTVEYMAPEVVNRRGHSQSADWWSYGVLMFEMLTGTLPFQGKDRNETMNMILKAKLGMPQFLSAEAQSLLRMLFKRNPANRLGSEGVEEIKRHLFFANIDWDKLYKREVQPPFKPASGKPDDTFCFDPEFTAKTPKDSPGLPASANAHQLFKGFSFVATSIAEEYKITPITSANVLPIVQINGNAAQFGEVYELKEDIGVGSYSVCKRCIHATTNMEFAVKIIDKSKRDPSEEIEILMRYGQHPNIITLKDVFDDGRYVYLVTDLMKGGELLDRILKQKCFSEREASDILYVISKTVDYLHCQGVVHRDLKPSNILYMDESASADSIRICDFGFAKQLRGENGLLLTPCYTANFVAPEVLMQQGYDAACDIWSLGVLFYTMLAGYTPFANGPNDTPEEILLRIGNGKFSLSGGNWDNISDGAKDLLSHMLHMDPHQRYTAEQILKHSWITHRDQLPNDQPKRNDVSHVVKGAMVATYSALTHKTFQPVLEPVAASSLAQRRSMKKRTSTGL
Chain of Proto-oncogene tyrosine-protein kinase Src (P12931 2-536 limits assumed): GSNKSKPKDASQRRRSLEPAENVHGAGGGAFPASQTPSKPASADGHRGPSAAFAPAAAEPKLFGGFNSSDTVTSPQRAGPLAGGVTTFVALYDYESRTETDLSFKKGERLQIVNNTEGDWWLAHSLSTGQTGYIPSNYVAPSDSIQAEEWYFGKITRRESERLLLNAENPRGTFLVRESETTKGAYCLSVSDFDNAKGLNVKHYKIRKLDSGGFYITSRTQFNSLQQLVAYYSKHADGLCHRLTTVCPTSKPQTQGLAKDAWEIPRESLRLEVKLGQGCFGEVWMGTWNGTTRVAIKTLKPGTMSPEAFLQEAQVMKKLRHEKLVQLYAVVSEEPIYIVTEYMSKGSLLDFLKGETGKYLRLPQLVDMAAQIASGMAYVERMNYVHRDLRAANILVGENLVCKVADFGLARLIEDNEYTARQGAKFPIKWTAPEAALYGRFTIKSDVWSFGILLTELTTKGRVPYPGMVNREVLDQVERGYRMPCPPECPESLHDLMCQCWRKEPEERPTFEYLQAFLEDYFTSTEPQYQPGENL
Chain of Ras-related protein Rab-6A (P20340 whole entry): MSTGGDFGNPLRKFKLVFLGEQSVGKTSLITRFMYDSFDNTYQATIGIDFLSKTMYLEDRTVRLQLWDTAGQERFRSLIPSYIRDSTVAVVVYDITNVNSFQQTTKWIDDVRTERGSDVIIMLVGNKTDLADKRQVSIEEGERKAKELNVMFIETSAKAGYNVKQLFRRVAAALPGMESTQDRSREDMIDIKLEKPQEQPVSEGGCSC

Row | SMILES | Kd [1] | Kd [2] | Kd [3] | Kd [4] | Kd [5] | Kd [6] | Kd [7] | Kd [8] | Kd [9] | Kd [10] | Kd [11]
1 | N#CC1(c2ccc(NC(=O)c3cccnc3NCc3ccncc3)cc2)CCCC1 [RIVOCERANIB] | > 30 µM (inactive) | > 30 µM (inactive) | > 30 µM (inactive) | > 30 µM (inactive) | > 30 µM (inactive) | > 30 µM (inactive) | > 30 µM (inactive) | > 30 µM (inactive) | > 30 µM (inactive) | > 30 µM (inactive) | > 30 µM (inactive)
2 | O=c1[nH]ccc2cc(OC3CCNCC3)ccc12 [SAR-407899 FREE BASE] | > 30 µM (inactive) | > 30 µM (inactive) | > 30 µM (inactive) | > 30 µM (inactive) | > 30 µM (inactive) | > 30 µM (inactive) | > 30 µM (inactive) | > 30 µM (inactive) | > 30 µM (inactive) | > 30 µM (inactive) | > 30 µM (inactive)
3 | CO[C@H]1C[C@@H]2CC[C@@H](C)[C@@](O)(O2)C(=O)C(=O)N2CCCC[C@H]2C(=O)O[C@H]([C@H](C)C[C@@H]2CC[C@@H](O)[C@H](OC)C2)CC(=O)[C@H](C)/C=C(\C)[C@@H](O)[C@@H](OC)C(=O)[C@H](C)C[C@H](C)/C=C/C=C/C=C/1C [SIROLIMUS] | > 30 µM (inactive) | > 30 µM (inactive) | > 30 µM (inactive) | > 30 µM (inactive) | > 30 µM (inactive) | > 30 µM (inactive) | > 30 µM (inactive) | > 30 µM (inactive) | > 30 µM (inactive) | > 30 µM (inactive) | > 30 µM (inactive)
4 | CO[C@H]1C[C@@H]2CC[C@@H](C)[C@@](O)(O2)C(=O)C(=O)N2CCCC[C@H]2C(=O)O[C@H]([C@H](C)C[C@@H]2CC[C@@H](OC(=O)C(C)(CO)CO)[C@H](OC)C2)CC(=O)[C@H](C)/C=C(\C)[C@@H](O)[C@@H](OC)C(=O)[C@H](C)C[C@H](C)/C=C/C=C/C=C/1C [TEMSIROLIMUS] | > 30 µM (inactive) | > 30 µM (inactive) | > 30 µM (inactive) | > 30 µM (inactive) | > 30 µM (inactive) | > 30 µM (inactive) | > 30 µM (inactive) | > 30 µM (inactive) | > 30 µM (inactive) | > 30 µM (inactive) | > 30 µM (inactive)
5 | COc1cc2c(Nc3ccc(Cl)c(Cl)c3F)ncnc2cc1OC[C@@H]1C[C@@H]2CN(C)C[C@@H]2C1 [TESEVATINIB] | > 30 µM (inactive) | > 30 µM (inactive) | > 30 µM (inactive) | > 30 µM (inactive) | > 30 µM (inactive) | > 30 µM (inactive) | > 30 µM (inactive) | > 30 µM (inactive) | 1.13 µM (active) | > 30 µM (inactive) | > 30 µM (inactive)
6 | O=C(Cc1ccc(-c2ccc(OCCN3CCOCC3)cc2)cn1)NCc1ccccc1 [TIRBANIBULIN] | > 30 µM (inactive) | > 30 µM (inactive) | > 30 µM (inactive) | > 30 µM (inactive) | > 30 µM (inactive) | > 30 µM (inactive) | > 30 µM (inactive) | > 30 µM (inactive) | > 30 µM (inactive) | > 30 µM (inactive) | > 30 µM (inactive)
7 | O=C1NC(=O)[C@@H](c2cn3c4c(cccc24)CCC3)[C@@H]1c1c[nH]c2ccccc12 [TIVANTINIB] | > 30 µM (inactive) | > 30 µM (inactive) | > 30 µM (inactive) | > 30 µM (inactive) | > 30 µM (inactive) | > 30 µM (inactive) | > 30 µM (inactive) | > 30 µM (inactive) | > 30 µM (inactive) | > 30 µM (inactive) | > 30 µM (inactive)
8 | C[C@@H](NC(=O)c1ncnc(N)c1Cl)c1ncc(C(=O)Nc2cc(C(F)(F)F)c(Cl)cn2)s1 [TOVORAFENIB] | > 30 µM (inactive) | > 30 µM (inactive) | > 30 µM (inactive) | > 30 µM (inactive) | > 30 µM (inactive) | > 30 µM (inactive) | > 30 µM (inactive) | > 30 µM (inactive) | > 30 µM (inactive) | > 30 µM (inactive) | 0.252 µM (active)
9 | Cc1cc(Nc2ncnc3ccc(NC4=NC(C)(C)CO4)cc23)ccc1Oc1ccn2ncnc2c1 [TUCATINIB] | > 30 µM (inactive) | > 30 µM (inactive) | > 30 µM (inactive) | > 30 µM (inactive) | > 30 µM (inactive) | > 30 µM (inactive) | > 30 µM (inactive) | > 30 µM (inactive) | > 30 µM (inactive) | > 30 µM (inactive) | > 30 µM (inactive)

Other lines, results leading:

Row | Kd [1] | Kd [2] | Kd [3] | Kd [4] | Kd [5] | Kd [6] | Kd [7] | Kd [8] | Kd [9] | Kd [10] | Kd [11] | SMILES
10 | > 30 µM (inactive) | > 30 µM (inactive) | > 30 µM (inactive) | > 30 µM (inactive) | > 30 µM (inactive) | > 30 µM (inactive) | 1.27 µM (active) | > 30 µM (inactive) | > 30 µM (inactive) | > 30 µM (inactive) | > 30 µM (inactive) | Cn1cc(-c2cnn3c(N)c(Br)c([C@@H]4CCCNC4)nc23)cn1 [SCH-900776]
11 | > 30 µM (inactive) | > 30 µM (inactive) | > 30 µM (inactive) | > 30 µM (inactive) | 1.61 µM (active) | > 30 µM (inactive) | 0.899 µM (active) | > 30 µM (inactive) | 0.092 µM (active) | > 30 µM (inactive) | > 30 µM (inactive) | CCS(=O)(=O)c1cccc(-c2cc(C(=O)NC3CCN(C)CC3)c(C)c3[nH]c4ncc(C)cc4c23)c1 [TAK-901]
12 | > 30 µM (inactive) | > 30 µM (inactive) | > 30 µM (inactive) | > 30 µM (inactive) | 3.28 µM (active) | > 30 µM (inactive) | > 30 µM (inactive) | > 30 µM (inactive) | > 30 µM (inactive) | > 30 µM (inactive) | > 30 µM (inactive) | C[C@@H](N)c1ccc(C(=O)Nc2ccnc3[nH]ccc23)cc1 [Y-39983]
